Experimental data reported in patent US20260273074A1, “FERRITIN-TARGETING PROTACS AND METHODS OF INDUCING PYROPTOSIS” (Wisconsin Alumni Research Foundation, priority 2023, published 2026).
Where a SMILES comes first, the peptide text is derived from it. The star is where a group is joined. Cbz = O=C(OCc1ccccc1)*; CH2F = FC*

Experiments:
ferritin (Mus musculus) = system: T1, ferritin (Mus musculus); test: Western blot of ferritin expression (ferritin degradation) in B16F10 cells; assay type: cell-based, murine; settings: Epox 1 μM pretreatment 1 h; for effect on DeFer-2-mediated ferritin degradation: DeFer-2 0.5 μM 12 h, VHL ligand 50 μM in excess
T1 construct: ferritin expression levels in B16F10 cells were evaluated; endogenous in cells; host or cells: B16F10 (murine melanoma)
Procedure: Western blot analysis: After various treatments, ferritin expression levels in B16F10 cells were evaluated to investigate the DeFer-2-mediated ferritin degradation. Briefly, B16F10 cells were seeded in 6-well culture plates (5×10^4 cells per well) and cultured for 24 h. Then the medium in the corresponding wells except the negative control was replaced with 1 mL of medium containing ferritin degraders, albumin nanoparticles, the epimer formulations, the combination of VHL ligand and oleic acid, or the combination of the degrader and VHL ligand at the indicated concentrations. […] The lysates were centrifuged at 12,000 rpm for 10 min at 4° C., followed by quantification of the total proteins in the supernatant through the bicinchoninic acid assay (BCA) assay. Afterward, the proteins in the supernatant were mixed with the loading buffer and heated at 95° C. for 15 min. Equal amounts of proteins from different samples were loaded into 15% SDS-polyacrylamide gel (20 μg protein per lane) to separate target proteins. After separation, proteins were transferred to polyvinylidene fluoride (PVDF) membranes before the membranes were blocked with 5% nonfat milk in PBST. Then proteins were incubated with primary antibodies overnight at 4° C., followed by the incubation with the goat-anti-rabbit IgG H&L (HRP) secondary antibodies at room temperature for 2 h. Finally, the bands were detected with electrochemiluminescence (ECL) western blot substrate for imaging, and ImageJ software was used for quantification.

B16F10 cells [1] = test: Cell viability evaluation by CCK-8 assay; settings: B16F10 cells, DeFer-2 5 μM; DFOM 25 μM, Z-VAD 10 μM, NSCI 0.1 μM, VX-765 10 μM
Procedure: Cell viability evaluation: The cell viability of B16F10 cells treated with ferritin degraders with or without various inhibitors was evaluated by CCK-8 assay. Briefly, 5×10^3 cells were seeded in 96-well plates and cultured for 24 h for attachment. Then the medium in the corresponding wells, except the control, was replaced with 100 μL of medium containing the indicated degrader formulations with concentrations of 0.008, 0.04, 0.2, 1, and 5 μM. After incubation for 24 or 48 h, CCK-8 reagent was added and interacted with cells at 37° C. for 1 h. The absorbance was measured by a microplate reader (Infinite M Plex) at the detection wavelength of 450 nm.
For blocking assays with Z-VAD, NSCI, and VX-765, 5×10^3 cells were seeded in 96-well plates and cultured 24 h for attachment. Then the medium in the corresponding wells, except the control, was replaced with 100 μL of medium containing Z-VAD (10 μM), NSCI (0.1 μM), or VX-765 (10 μM). […] Following another 24-h incubation, CCK-8 reagents were added and interacted with cells at 37° C. for 1 h. The absorbance was measured by a microplate reader (Infinite® M Plex) at the detection wavelength of 450 nm. For blocking assays with DFOM, 5×10^3 cells were seeded in 96-well plates and cultured 24 h for attachment. […] Following another 20-h incubation, CCK-8 reagents were added and interacted with cells at 37° C. for 1 h. The absorbance was measured by a microplate reader (Infinite® M Plex) at the detection wavelength of 450 nm.

GSDME-N = test: Western blot of cleaved N-terminal GSDME (GSDME-N) in B16F10 cells; assay type: cell-based, murine; settings: GSH pretreatment 4 h
Procedure: (§1) As for the determination of cleaved-GSDME and cleaved-caspase-3, B16F10 cells were seeded in 6-well culture plates (2×10^5 cells per well) and cultured for 24 h. Then the medium in the corresponding wells except the negative control was replaced with 1 mL of medium containing ferritin degraders, albumin nanoparticles, or the degrader with inhibitors at the indicated concentrations. Incubation for another 6 or 8 h was used to test the cleaved-caspase-3, while treatment for another 16 or 20 h was used to test cleaved-GSDME. The following procedures were the same as mentioned above.

cleaved caspase 3 = test: Western blot of cleaved caspase 3 in B16F10 cells; assay type: cell-based, murine; settings: GSH pretreatment 4 h
Procedure: as §1

[2] = target: T2, apoferritin from equine spleen (Equus caballus, UniProt P02791); test: Isothermal titration calorimetry (ITC) binding to ferritin
T2 construct: the apoferritin from equine spleen (A3660, Sigma-Aldrich) that is not combined with iron was used; purchased Sigma-Aldrich A3660; host or cells: equine spleen (tissue-derived)
T2 sequence (P02791 2-175 limits assumed): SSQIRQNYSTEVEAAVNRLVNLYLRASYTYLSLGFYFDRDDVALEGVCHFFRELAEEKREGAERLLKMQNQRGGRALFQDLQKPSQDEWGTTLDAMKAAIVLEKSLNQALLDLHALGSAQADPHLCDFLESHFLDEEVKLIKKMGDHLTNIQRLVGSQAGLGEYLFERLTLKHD
Procedure: As for the ferritin proteins, the apoferritin from equine spleen (A3660, Sigma-Aldrich) that is not combined with iron was used. Before the ITC test, 1 mL of apoferritin in glycerol solution (50% glycerol and 0.075 M NaCl) was placed in a dialysis bag with a molecular weight cut-off of 3 kDa. The dialysis bags were then immersed in the prepared solution (20 mM Tris-HCl, pH 8.5, and 130 mM NaCl) and stirred at room temperature. The dialysis buffer was changed every 24 h for three times, and the last buffer was collected and 0.05% DMSO was added to serve as the ITC buffer. As for the oleic acid, 12 μM apoferritin in the ITC buffer was placed in the ITC cell, and the syringe was full of 250 μM oleic acid in the same ITC buffer. Besides the first injection with 5 μL of the oleic acid solution, 18 aliquots with 10 μL of the oleic acid solution were titrated into the apoferritin solution with a time interval of 300 s. […] Besides the first injection with 1 μL of the apoferritin solution, 25 aliquots were titrated with a time interval of 300 s. Raw data were corrected for control titrations (the solution in the syringe into the blank ITC buffer in the cell) and integrated using Origin 7.0 (MicroCal). Binding kinetics parameters, including N, Kd, ΔH, and ΔS, were calculated using a single-class binding site model.

B16F10 cells [3] = test: LDH release assay; assay type: cell-based, murine; settings: inhibitor pretreatment 4 h, DeFer-2 5 μM, NSCI 0.1 μM, VX-765 10 μM
Procedure: After incubation for 24 h, the cell samples were used to measure LDH release according to the manufacturer's instructions of CytoScan™ LDH Cytotoxicity Assay kit from G-Biosciences (St. Louis, MO, USA).
Following another 24-h incubation, the cell samples were used to measure LDH release according to the manufacturer's instructions of CytoScan™ LDH Cytotoxicity Assay kit from G-Biosciences (St. Louis, MO, USA).

## Cc1ncsc1-c1ccc(CNC(=O)[C@@H]2C[C@@H](O)CN2C(=O)[C@@H](N)C(C)(C)C)cc1.Cl [VHL ligand, (2S,4R)-1-((S)-2-amino-3,3-dimethylbutanoyl)-4-hydroxy-N-(4-(4-methylthiazol-5-yl)benzyl) pyrrolidine-2-carboxamide hydrochloride, reference compound]
Ferritin (Mus musculus)
  effect on DeFer-2-mediated ferritin degradation: compromised

## COC(=O)C[C@H](NC(=O)[C@H](C)NC(=O)[C@@H](NC(=O)OCc1ccccc1)C(C)C)C(=O)CF [Z-VAD, Z-VAD(OMe)-FMK, reference compound] (Cbz-Val-Ala-Asp(OMe)-CH2F)
B16F10 cells [1]
  effect on DeFer-2-induced cytotoxicity / cell death: compromised

## N[C@@H](CCC(=O)N[C@@H](CS)C(=O)NCC(=O)O)C(=O)O [GSH, glutathione, reference compound]
GSDME-N
  effect of pretreatment on DeFer-2-caused GSDME-N generation: compromised by GSH pretreatment
Cleaved caspase 3
  effect of pretreatment on DeFer-2-caused caspase 3 activation: substantially reduced activated caspase 3

## CC[C@H](C)[C@H](NC(=O)[C@H]([C@@H](C)CC)N(C)C(C)=O)C(=O)N[C@H](C(=O)N[C@@H](CC(C)C)C(=O)[C@@]1(C)CO1)[C@@H](C)O [Epox, epoxomicin, reference compound]
Ferritin (Mus musculus); B16F10 cells, 0.5 μM, 12 h
  effect on aDeFer-2-mediated ferritin degradation: compromised the aDeFer-2-mediated ferritin degradation
Ferritin (Mus musculus)
  effect on DeFer-2-mediated ferritin degradation: inhibited

## CCCCCCCC/C=C\CCCCCCCC(=O)O [OA, oleic acid, reference compound]
[2]
  Kd: 12.8 ± 2.89 µM

## CCO[C@@H]1OC(=O)C[C@@H]1NC(=O)[C@@H]1CCCN1C(=O)[C@@H](NC(=O)c1ccc(N)c(Cl)c1)C(C)(C)C [VX-765, reference compound]
B16F10 cells [3]
  effect on LDH release caused by DeFer-2: barely affected
B16F10 cells [1]
  effect on DeFer-2-induced cytotoxicity / cell death: remained unchanged
